Test results taken from PubChem BioAssay (NCI).
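96-well plates; 48 h exposure; 5 concentrations. Endpoints by linear interpolation between flanking doses. Not reached: highest tested concentration assigned. TGI denotes the concentration required for complete inhibition of growth.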

Legend:
Experiment in all cases: NCI-60 cell line screen, 48 h
MDA-MB-231 breast = tested on: MDA-MB-231 breast
HL-60(TB) leukemia = tested on: HL-60(TB) leukemia
SF-539 CNS = tested on: SF-539 CNS
NCI/ADR-RES ovarian = tested on: NCI/ADR-RES ovarian
DU-145 prostate = tested on: DU-145 prostate
LOX IMVI melanoma = tested on: LOX IMVI melanoma
BT-549 breast = tested on: BT-549 breast
SF-268 CNS = tested on: SF-268 CNS
T-47D breast = tested on: T-47D breast
UO-31 renal = tested on: UO-31 renal
SK-MEL-2 melanoma = tested on: SK-MEL-2 melanoma
UACC-62 melanoma = tested on: UACC-62 melanoma
UACC-257 melanoma = tested on: UACC-257 melanoma
SK-OV-3 ovarian = tested on: SK-OV-3 ovarian
A549 NSCLC = tested on: A549 NSCLC
MALME-3M melanoma = tested on: MALME-3M melanoma
OVCAR-8 ovarian = tested on: OVCAR-8 ovarian
EKVX NSCLC = tested on: EKVX NSCLC
OVCAR-5 ovarian = tested on: OVCAR-5 ovarian
HCC-2998 colon = tested on: HCC-2998 colon

Compound	TGI (MDA-MB-231 breast)	TGI (HL-60(TB) leukemia)	TGI (SF-539 CNS)	TGI (NCI/ADR-RES ovarian)	TGI (DU-145 prostate)	TGI (LOX IMVI melanoma)	TGI (BT-549 breast)	TGI (SF-268 CNS)	TGI (T-47D breast)	TGI (UO-31 renal)	TGI (SK-MEL-2 melanoma)	TGI (UACC-62 melanoma)	TGI (UACC-257 melanoma)	TGI (SK-OV-3 ovarian)	TGI (A549 NSCLC)	TGI (MALME-3M melanoma)	TGI (OVCAR-8 ovarian)	TGI (EKVX NSCLC)	TGI (OVCAR-5 ovarian)	TGI (HCC-2998 colon)
CC(=O)O[C@H]1CC[C@@]2(C)C(=CC[C@@H]3[C@@H]2CC[C@]2(C)C(=N/O)/C(=C/c4ccc([N+](=O)[O-])cc4)C[C@@H]32)C1	50.1 µM	66.1 µM	> 100 µM	> 100 µM	31.4 µM	> 100 µM	14 µM	> 100 µM	2.46 µM	26 µM	17.5 µM	20.5 µM	1.55 µM	> 100 µM	> 100 µM	> 100 µM	–	–	–	–
CCOC(=O)c1cc2c([nH]1)C(=O)CC1=C2CCN1Cc1ccccc1	28.8 µM	54.1 µM	39.4 µM	43.5 µM	28.6 µM	29.1 µM	38.3 µM	43.6 µM	6.77 µM	29.5 µM	42.5 µM	28.4 µM	36.1 µM	37.1 µM	73.5 µM	13.2 µM	46.6 µM	37.4 µM	–	–
O=[N+]([O-])c1cccc2nc3ccccc3c(NCCCN3CCOCC3)c12	0.0973 µM	0.157 µM	0.138 µM	0.341 µM	0.0298 µM	1.66 µM	0.115 µM	0.744 µM	0.241 µM	0.0564 µM	0.0362 µM	0.0326 µM	0.0527 µM	0.267 µM	0.0674 µM	0.026 µM	0.141 µM	0.0559 µM	0.0841 µM	–
CC1C/C(=N\N(C)C)C(C#N)(C#N)C1(C#N)C#N (configuration not stated)	1.32 µM	> 100 µM	34.8 µM	75.8 µM	34 µM	19.7 µM	22.1 µM	24.8 µM	37.7 µM	30.3 µM	48.8 µM	39.5 µM	28 µM	> 67.3 µM	69.5 µM	13.7 µM	45 µM	56.1 µM	48.5 µM	31.5 µM
Cc1c(CCCl)c(N=[N+]=[N-])n2c(nc3ccccc32)c1C#N	3.16 µM	2.6 µM	3.5 µM	5.53 µM	6.3 µM	2.37 µM	2.1 µM	5.67 µM	3.18 µM	3.32 µM	3.48 µM	3.12 µM	3.53 µM	5.07 µM	5.95 µM	2.9 µM	5.21 µM	4.4 µM	4.73 µM	–
CN(C)CCCNc1nnc(NCCCN(C)C)c2c(=O)c3sccc3[nH]c12	> 30.7 µM	> 28.2 µM	30.1 µM	> 100 µM	> 100 µM	54.4 µM	> 79 µM	25.7 µM	> 51.5 µM	9.15 µM	37.8 µM	23.7 µM	> 100 µM	> 100 µM	> 78.9 µM	35.5 µM	> 100 µM	65.6 µM	> 85.1 µM	23.7 µM
COc1cc2c(cc1OC)C1(c3ccccc3)CN(C2)Cc2cc(OC)c(OC)cc21	53.8 µM	63.8 µM	41.9 µM	74.9 µM	> 100 µM	> 100 µM	80.1 µM	> 100 µM	> 100 µM	> 100 µM	70.1 µM	> 100 µM	> 100 µM	> 100 µM	> 100 µM	> 100 µM	> 100 µM	> 100 µM	> 100 µM	50.1 µM
Cc1ccc2c(c1)[nH]c(=S)n2C=C1C(=O)CC(C)(C)CC1=O	> 100 µM	> 100 µM	> 100 µM	> 100 µM	> 100 µM	> 100 µM	> 100 µM	> 100 µM	> 100 µM	> 100 µM	> 100 µM	> 100 µM	> 100 µM	> 100 µM	> 100 µM	–	> 100 µM	> 100 µM	> 100 µM	> 100 µM
Cc1cc2c(cc1C)[n+](=O)c(N1CCN(c3ccc([N+](=O)[O-])cc3)CC1)c(C#N)n2[O-]	78.1 µM	> 100 µM	–	> 100 µM	> 100 µM	> 100 µM	> 100 µM	> 100 µM	63.7 µM	> 100 µM	66 µM	59.9 µM	> 100 µM	30.9 µM	> 100 µM	> 100 µM	49.8 µM	> 100 µM	> 100 µM	> 100 µM
COc1ccccc1S(=O)Nc1ccccc1 (configuration not stated)	> 100 µM	> 100 µM	> 100 µM	> 100 µM	> 100 µM	> 100 µM	> 100 µM	> 100 µM	95.5 µM	> 100 µM	> 100 µM	> 100 µM	> 100 µM	–	> 100 µM	> 100 µM	> 100 µM	> 100 µM	> 100 µM	> 100 µM
CCOC(=O)c1cccc([N+](=O)[O-])c1N	> 100 µM	> 100 µM	> 100 µM	> 100 µM	> 100 µM	> 100 µM	> 100 µM	–	> 100 µM	> 100 µM	> 100 µM	> 100 µM	> 100 µM	> 100 µM	> 100 µM	> 100 µM	> 100 µM	> 100 µM	> 100 µM	> 100 µM
Cc1ccc2c(=O)c(-c3nnc(N)s3)c[nH]c2n1	> 100 µM	> 100 µM	–	> 100 µM	> 100 µM	> 100 µM	> 100 µM	> 100 µM	> 100 µM	> 100 µM	> 100 µM	> 100 µM	> 100 µM	–	> 100 µM	> 100 µM	> 100 µM	> 100 µM	> 100 µM	–
O=C(Nc1nc2ccc([N+](=O)[O-])cc2[n+]([O-])n1)C(F)(F)F	> 100 µM	34.9 µM	> 100 µM	> 100 µM	> 100 µM	–	> 100 µM	> 100 µM	> 100 µM	> 100 µM	65.2 µM	53.1 µM	37.9 µM	–	83.8 µM	20.4 µM	> 100 µM	–	> 100 µM	> 100 µM
